Reference: the NIST ThermoML archive (doi:10.1016/j.jct.2007.07.001)
Numbers after ± are expanded uncertainties.

Key:
[1] = molar heat capacity at constant pressure; settings: 101 kPa, Liquid, Large sample (1 g) DSC
[2] = molar heat capacity at constant pressure; xn = mol fraction of the nth substance listed; settings: 101 kPa, Liquid, Large sample (1 g) DSC

CCCCCCn1cc[n+](C)c1.F[B-](F)(F)F [1-hexyl-3-methylimidazolium tetrafluoroborate]
[1]
Settings | molar heat capacity at constant pressure [J/K/mol]
283.15 K | 423.2 ± 6.6
288.15 K | 425.8 ± 6.6
293.15 K | 428.4 ± 6.6
298.15 K | 431 ± 6.7
303.15 K | 433.6 ± 6.7
308.15 K | 436.2 ± 6.8
313.15 K | 438.8 ± 6.8
318.15 K | 441.4 ± 6.8
323.15 K | 444 ± 6.9

CO [methanol] + CCCCCCn1cc[n+](C)c1.F[B-](F)(F)F
[2], x2 = 0
Settings | molar heat capacity at constant pressure [J/K/mol]
283.15 K | 78.6 ± 1.2
288.15 K | 79.5 ± 1.2
293.15 K | 80.4 ± 1.2
298.15 K | 81.3 ± 1.3
303.15 K | 82.3 ± 1.3
308.15 K | 83.4 ± 1.3
313.15 K | 84.5 ± 1.3
318.15 K | 85.7 ± 1.3
323.15 K | 87 ± 1.3

CCCCCCCC[n+]1ccn(C)c1.F[B-](F)(F)F [1-methyl-3-octylimidazolium tetrafluoroborate]
[1]
Settings | molar heat capacity at constant pressure [J/K/mol]
283.15 K | 490.1 ± 7.6
288.15 K | 493.2 ± 7.6
293.15 K | 496.3 ± 7.7
298.15 K | 499.4 ± 7.7
303.15 K | 502.5 ± 7.8
308.15 K | 505.4 ± 7.8
313.15 K | 508.4 ± 7.9
318.15 K | 511.3 ± 7.9
323.15 K | 514.2 ± 8

CCCCCCn1cc[n+](C)c1.F[B-](F)(F)F [1-hexyl-3-methylimidazolium tetrafluoroborate] + CO
molar heat capacity at constant pressure [J/K/mol], [2]
Settings | 283.15 K | 288.15 K | 293.15 K | 298.15 K | 303.15 K | 308.15 K | 313.15 K | 318.15 K | 323.15 K
x1 = 0.0751 | 108 ± 1.7 | 108.7 ± 1.7 | 109.5 ± 1.7 | 110.3 ± 1.7 | 111.2 ± 1.7 | 112.2 ± 1.7 | 113.2 ± 1.8 | 114.2 ± 1.8 | 115.3 ± 1.8
x1 = 0.1511 | 135.5 ± 2.1 | 136.4 ± 2.1 | 137.4 ± 2.1 | 138.3 ± 2.1 | 139.3 ± 2.2 | 140.3 ± 2.2 | 141.3 ± 2.2 | 142.4 ± 2.2 | 143.4 ± 2.2
x1 = 0.2973 | 187.2 ± 2.9 | 188.1 ± 2.9 | 188.9 ± 2.9 | 189.9 ± 2.9 | 190.8 ± 3 | 191.8 ± 3 | 192.9 ± 3 | 193.9 ± 3 | 195.1 ± 3
x1 = 0.397 | 220.7 ± 3.4 | 221.7 ± 3.4 | 222.8 ± 3.5 | 223.9 ± 3.5 | 225.1 ± 3.5 | 226.3 ± 3.5 | 227.5 ± 3.5 | 228.8 ± 3.5 | 230.1 ± 3.6
x1 = 0.6423 | 301.9 ± 4.7 | 303.6 ± 4.7 | 305.3 ± 4.7 | 307 ± 4.8 | 308.7 ± 4.8 | 310.5 ± 4.8 | 312.3 ± 4.8 | 314.1 ± 4.9 | 315.9 ± 4.9
x1 = 0.8759 | 380.4 ± 5.9 | 382.7 ± 5.9 | 385 ± 6 | 387.4 ± 6 | 389.7 ± 6 | 392.1 ± 6.1 | 394.5 ± 6.1 | 396.9 ± 6.1 | 399.3 ± 6.2
x1 = 1 | 423.2 ± 6.6 | 425.8 ± 6.6 | 428.4 ± 6.6 | 431 ± 6.7 | 433.6 ± 6.7 | 436.2 ± 6.8 | 438.8 ± 6.8 | 441.4 ± 6.8 | 444 ± 6.9

CO [methanol] + CCCCCCCC[n+]1ccn(C)c1.F[B-](F)(F)F
[2], x2 = 0
Settings | molar heat capacity at constant pressure [J/K/mol]
283.15 K | 78.6 ± 1.2
288.15 K | 79.5 ± 1.2
293.15 K | 80.4 ± 1.2
298.15 K | 81.3 ± 1.3
303.15 K | 82.3 ± 1.3
308.15 K | 83.4 ± 1.3
313.15 K | 84.5 ± 1.3
318.15 K | 85.7 ± 1.3
323.15 K | 87 ± 1.3

CCCCCCCC[n+]1ccn(C)c1.F[B-](F)(F)F [1-methyl-3-octylimidazolium tetrafluoroborate] + CO
molar heat capacity at constant pressure [J/K/mol], [2]
Settings | 283.15 K | 288.15 K | 293.15 K | 298.15 K | 303.15 K | 308.15 K | 313.15 K | 318.15 K | 323.15 K
x1 = 0.0736 | 111.8 ± 1.7 | 112.7 ± 1.7 | 113.6 ± 1.8 | 114.6 ± 1.8 | 115.6 ± 1.8 | 116.6 ± 1.8 | 117.7 ± 1.8 | 118.9 ± 1.8 | 120.1 ± 1.9
x1 = 0.1652 | 151.5 ± 2.3 | 152.6 ± 2.4 | 153.7 ± 2.4 | 154.7 ± 2.4 | 155.9 ± 2.4 | 157 ± 2.4 | 158.1 ± 2.4 | 159.3 ± 2.5 | 160.4 ± 2.5
x1 = 0.3441 | 226.4 ± 3.5 | 227.4 ± 3.5 | 228.5 ± 3.5 | 229.6 ± 3.6 | 230.8 ± 3.6 | 232.1 ± 3.6 | 233.5 ± 3.6 | 235 ± 3.6 | 236.6 ± 3.7
x1 = 0.4516 | 269.5 ± 4.2 | 270.8 ± 4.2 | 272.1 ± 4.2 | 273.5 ± 4.2 | 275 ± 4.3 | 276.6 ± 4.3 | 278.2 ± 4.3 | 279.9 ± 4.3 | 281.6 ± 4.4
x1 = 0.6526 | 349.3 ± 5.4 | 351.3 ± 5.4 | 353.3 ± 5.5 | 355.3 ± 5.5 | 357.4 ± 5.5 | 359.6 ± 5.6 | 361.8 ± 5.6 | 364 ± 5.6 | 366.4 ± 5.7
x1 = 0.8472 | 427.6 ± 6.6 | 430.3 ± 6.7 | 433 ± 6.7 | 435.7 ± 6.8 | 438.4 ± 6.8 | 441.1 ± 6.8 | 443.7 ± 6.9 | 446.3 ± 6.9 | 448.9 ± 7
x1 = 1 | 490.1 ± 7.6 | 493.2 ± 7.6 | 496.3 ± 7.7 | 499.4 ± 7.7 | 502.5 ± 7.8 | 505.4 ± 7.8 | 508.4 ± 7.9 | 511.3 ± 7.9 | 514.2 ± 8

CO [methanol]
[1]
Settings | molar heat capacity at constant pressure [J/K/mol]
283.15 K | 78.6 ± 1.2
288.15 K | 79.5 ± 1.2
293.15 K | 80.4 ± 1.2
298.15 K | 81.3 ± 1.3
303.15 K | 82.3 ± 1.3
308.15 K | 83.4 ± 1.3
313.15 K | 84.5 ± 1.3
318.15 K | 85.7 ± 1.3
323.15 K | 87 ± 1.3
